In general, mortality refers to the percentage killed.

What all share (type): functional
Test [1] can be described thus: Cytotoxicity against human SKOV3 cells assessed as cell growth at 10 uM after 48 hrs by SRB assay. Particulars: SK-OV-3, 48 h, read-out: Activity. For orientation: In SRB staining, fixed cells bind dye roughly in proportion to their protein.
The test system of test [2] is Malme-3M. Put plainly: Cytotoxicity against human MALME-3M cells assessed as cell growth at 10 uM after 48 hrs by SRB assay. Particulars: read-out: Activity.
Test [3] concerns A549. Briefly: Cytotoxicity against human A549 cells assessed as cell growth at 10 uM after 48 hrs by SRB assay. To be noted: A549, 48 h, read-out: Activity.
Test [4] can be described thus: Cytotoxicity against human OVCAR4 cells assessed as cell growth at 10 uM after 48 hrs by SRB assay. To be noted: OVCAR-4, 48 h, read-out: Activity.
Test [5] is described as follows: Cytotoxicity against human PC3 cells assessed as cell growth at 10 uM after 48 hrs by SRB assay. To be noted: PC-3, 48 h, read-out: Activity.
Test [6] is described as follows: Cytotoxicity against human COLO205 cells assessed as cell growth at 10 uM after 48 hrs by SRB assay. To be noted: COLO 205, 48 h, read-out: Activity.
The subject of test [7] is NCI-H23. Briefly: Cytotoxicity against human NCI-H23 cells assessed as cell growth at 10 uM after 48 hrs by SRB assay. To be noted: NCI-H23, 48 h, read-out: Activity.
The nature of test [8]: Cytotoxicity against human HL-60(TB) cells assessed as cell growth at 10 uM after 48 hrs by SRB assay. To be noted: HL-60, 48 h, read-out: Activity.
Test [9] concerns K562. Briefly: Cytotoxicity against human K562 cells assessed as cell growth at 10 uM after 48 hrs by SRB assay. To be noted: K562, 48 h, read-out: Activity.
The nature of test [10]: Cytotoxicity against human RPMI8226 cells assessed as cell growth at 10 uM after 48 hrs by SRB assay. To be noted: RPMI-8226, 48 h, read-out: Activity.
Test [11] can be described thus: Cytotoxicity against human SW620 cells assessed as cell growth at 10 uM after 48 hrs by SRB assay. To be noted: SW-620, 48 h, read-out: Activity.
Test [12] relates to A549. Put plainly: Cytotoxicity against human A549 cells assessed as cell mortality at 10 uM after 48 hrs by SRB assay. Particulars: A549, 48 h.
Test [13] can be described thus: Cytotoxicity against human SF539 cells assessed as cell growth at 10 uM after 48 hrs by SRB assay. Particulars: SF-539, 48 h, read-out: Activity.
For test [14], the system named is MCF7. Briefly: Cytotoxicity against human MCF7 cells assessed as cell growth at 10 uM after 48 hrs by SRB assay. Particulars: MCF7, 48 h, read-out: Activity.
For test [15], the system named is NCI-H522. Put plainly: Cytotoxicity against human NCI-H522 cells assessed as cell mortality at 10 uM after 48 hrs by SRB assay. To be noted: NCI-H522, 48 h.
Test [16] in a line: Cytotoxicity against human PC3 cells assessed as cell growth at 7.25 uM after 48 hrs by SRB assay. Particulars: PC-3, 48 h, read-out: Activity.
Test [17] is described as follows: Cytotoxicity against human HCT15 cells assessed as cell growth at 7.25 uM after 48 hrs by SRB assay. To be noted: HCT-15, 48 h, read-out: Activity.
The test system of test [18] is SK-MEL-5. Put plainly: Cytotoxicity against human SK-MEL-5 cells assessed as cell growth at 7.25 uM after 48 hrs by SRB assay. Particulars: SK-MEL-5, 48 h, read-out: Activity.
Test [19] can be described thus: Cytotoxicity against human COLO205 cells assessed as cell growth at 7.25 uM after 48 hrs by SRB assay. Particulars: COLO 205, 48 h, read-out: Activity.
Test [20] in a line: Cytotoxicity against human LOXIMVI cells assessed as cell growth at 7.25 uM after 48 hrs by SRB assay. Particulars: LOX IMVI, read-out: Activity.
Test [21] deals with CCRF-CEM. Put plainly: Cytotoxicity against human CCRF-CEM cells assessed as cell growth at 7.25 uM after 48 hrs by SRB assay. Particulars: read-out: Activity.
Test [22] in a line: Cytotoxicity against human SNB75 cells assessed as cell growth at 7.25 uM after 48 hrs by SRB assay. Particulars: SNB-75, 48 h, read-out: Activity.
A short description of test [23]: Cytotoxicity against human SNB19 cells assessed as cell growth at 7.25 uM after 48 hrs by SRB assay. To be noted: SNB-19, 48 h, read-out: Activity.
Test [24] in a line: Cytotoxicity against human HL-60(TB) cells assessed as cell growth at 7.25 uM after 48 hrs by SRB assay. To be noted: HL-60, 48 h, read-out: Activity.
The test system of test [25] is M14. Put plainly: Cytotoxicity against human M14 cells assessed as cell growth at 7.25 uM after 48 hrs by SRB assay. Particulars: M14, 48 h, read-out: Activity.
Test [26] in a line: Cytotoxicity against human OVCAR5 cells assessed as cell growth at 2.13 uM after 48 hrs by SRB assay. Particulars: OVCAR-5, 48 h, read-out: Activity.
The nature of test [27]: Cytotoxicity against human Caki1 cells assessed as cell growth at 2.13 uM after 48 hrs by SRB assay. Particulars: CAKI-1, 48 h, read-out: Activity.
A short description of test [28]: Cytotoxicity against human SNB19 cells assessed as cell growth at 2.13 uM after 48 hrs by SRB assay. Particulars: SNB-19, 48 h, read-out: Activity.
Test [29] concerns SK-MEL-2. Put plainly: Cytotoxicity against human SK-MEL-2 cells assessed as cell growth at 2.13 uM after 48 hrs by SRB assay. Particulars: SK-MEL-2, 48 h, read-out: Activity.
Test [30] can be described thus: Cytotoxicity against human Hs 578T cells assessed as cell growth at 2.13 uM after 48 hrs by SRB assay. To be noted: read-out: Activity.
The nature of test [31]: Cytotoxicity against human HOP62 cells assessed as cell growth at 2.13 uM after 48 hrs by SRB assay. Particulars: HOP-62, 48 h, read-out: Activity.
Test [32] in a line: Cytotoxicity against human OVCAR8 cells assessed as cell growth at 2.13 uM after 48 hrs by SRB assay. Particulars: OVCAR-8, 48 h, read-out: Activity.
Test [33] concerns A549. Briefly: Cytotoxicity against human A549 cells assessed as cell mortality at 2.13 uM after 48 hrs by SRB assay. To be noted: A549, 48 h.
Test [34] concerns KM12. Put plainly: Cytotoxicity against human KM12 cells assessed as cell growth at 2.13 uM after 48 hrs by SRB assay. Particulars: KM12, 48 h, read-out: Activity.
The test system of test [35] is NCI-H23. Put plainly: Cytotoxicity against human NCI-H23 cells assessed as cell growth at 2.13 uM after 48 hrs by SRB assay. To be noted: NCI-H23, 48 h, read-out: Activity.
Test [36] has as its system MDA-MB-231. Put plainly: Cytotoxicity against human MDA-MB-231 cells assessed as cell growth at 2.13 uM after 48 hrs by SRB assay. To be noted: MDA-MB-231, 48 h, read-out: Activity.
Test [37] can be described thus: Cytotoxicity against human RXF393 cells assessed as cell growth at 2.13 uM after 48 hrs by SRB assay. Particulars: RXF 393, 48 h, read-out: Activity.
The nature of test [38]: Cytotoxicity against human RPMI8226 cells assessed as cell growth at 2.13 uM after 48 hrs by SRB assay. Particulars: RPMI-8226, 48 h, read-out: Activity.
The test system of test [39] is U-251. Put plainly: Cytotoxicity against human U251 cells assessed as cell growth at 2.13 uM after 48 hrs by SRB assay. Particulars: U-251, 48 h, read-out: Activity.
Test [40] in a line: Cytotoxicity against human OVCAR4 cells assessed as cell growth at 2.13 uM after 48 hrs by SRB assay. To be noted: OVCAR-4, 48 h, read-out: Activity.

For `CC(C)C[C@H](NC(=O)[C@H](CCCCN)NC(=O)[C@H](C)NC(=O)[C@H](CC(C)C)NC(=O)[C@H](CCCCN)NC(=O)[C@H](CCCCN)NC(=O)[C@H](C)NC(=O)[C@H](CC(C)C)NC(=O)[C@H](CCCCN)NC(=O)[C@H](C)NC(=O)[C@H](CC(C)C)NC(=O)[C@H](CCCCN)NC(=O)[C@@H](N)CC(=O)O)C(=O)N[C@@H](C)C(=O)N[C@@H](CCCCN)C(=O)N[C@@H](C)C(=O)N[C@@H](CCCCN)C(N)=O`, the growth at 10 µM is 98.7% in test [1]; 107% in test [2]; 81% in test [3]; 109% in test [4]; 94.7% in [5]; 114% in test [6]. The growth at 10 µM in test [7] turned out to be 103%; in [8], 99.5%; in [9], 99.8%; in [10] it was 104%; in test [11], 106%; in test [13], 98%. Further, in [14], the growth at 10 µM is 96.7%. The mortality at 10 µM in test [12] came to 19%; in test [15] it was 14%.
With `CCCCCCCCCCCCCCCC(=O)NCCCC[C@H](NC(=O)[C@H](C)NC(=O)[C@H](CCCCN)NC(=O)[C@H](C)NC(=O)[C@H](CC(C)C)NC(=O)[C@H](CCCCN)NC(=O)[C@H](C)NC(=O)[C@H](CC(C)C)NC(=O)[C@H](CCCCN)NC(=O)[C@H](CCCCN)NC(=O)[C@H](C)NC(=O)[C@H](CC(C)C)NC(=O)[C@H](CCCCN)NC(=O)[C@H](C)NC(=O)[C@H](CC(C)C)NC(=O)[C@H](CCCCN)NC(=O)[C@@H](N)CC(=O)O)C(N)=O`, the growth at 7.25 µM amounted to 91.2% in [16]; 109% in test [17]; 102% in test [18]; 112% in [19]; 95.6% in test [20]; 111% in test [21]. Besides, the growth at 7.25 µM in test [22] was 93.6%; in [23] it was 103%; in test [24], 93.1%; in [25], 102%.
`CCCCCCCCCCCCCCCCNCCO[C@H]1C[C@H](n2cc(C)c(=O)[nH]c2=O)O[C@@H]1C(=O)NCCCC[C@H](NC(=O)[C@H](C)NC(=O)[C@H](CCCCN)NC(=O)[C@H](C)NC(=O)[C@H](CC(C)C)NC(=O)[C@H](CCCCN)NC(=O)[C@H](C)NC(=O)[C@H](CC(C)C)NC(=O)[C@H](CCCCN)NC(=O)[C@H](CCCCN)NC(=O)[C@H](C)NC(=O)[C@H](CC(C)C)NC(=O)[C@H](CCCCN)NC(=O)[C@H](C)NC(=O)[C@H](CC(C)C)NC(=O)[C@H](CCCCN)NC(=O)[C@@H](N)CC(=O)O)C(N)=O`: the growth at 2.13 µM in test [26] stood at 105%; in test [27] it was 96.1%; in test [28], 106%; in [29], 111%; in test [30], 101%; in test [31], 99.4%. Moreover, the growth at 2.13 µM in test [32] came to 96.8%; in [34], 103%; in test [35] it was 106%; in [36] it was 101%; in test [37] it was 113%; in test [38], 104%. Also, the growth at 2.13 µM in [39] was determined as 92.7%; in test [40], 112%. Besides, the mortality at 2.13 µM in test [33] is 31%.

(Values after ChEMBL document CHEMBL3822390, “Synthesis, characterization and anti-cancer activity of a peptide nucleolipid bioconjugate” (2016).)
